Measured values from US20240254066A1, “RESCORCINOLS, METHODS FOR THEIR MANUFACTURE, AND USES THEREOF” (GW Research Limited, priority 2021, published 2024).

Tested on: tonic hind limb extensor convulsions (mouse model of generalised seizure)
Experiment: mini-MEST (maximal electroshock seizure threshold) test in the mouse
Settings: for change in vivo at 5 mg/kg / change in vivo at 50 mg/kg: Mus musculus, ip, change in CC50; for change in vivo at 5 mg/kg: 0.25 h, read-out: % change from vehicle, 5 mg/kg i.p., 15 min post dose; for change in vivo at 50 mg/kg: 0.5 h, read-out: % change from vehicle, 50 mg/kg i.p., 30 min post dose
Protocol: The efficacy of novel resorcinols 2, 3, 5, 8, 10, 15, 16, 17, 18, 19, 41 45, 46, 53, 56 and 58 were tested in a novel mouse model of generalised seizure, the mini-MEST (maximal electroshock seizure threshold) test, which uses lower n numbers than typically used.
The maximal electroshock seizure threshold (MEST) test is widely utilized preclinically to evaluate pro- or anti-convulsant properties of test compounds (Loscher et al., 1991).
In the MEST test the ability of a drug to alter the seizure threshold current required to induce hind limb tonic extensor convulsions is measured according to an “up and down” method of shock titration (Kimball et al., 1957). An increase in seizure threshold is indicative of anti-convulsant effect.
The ability of a test compound to alter the stimulus intensity, expressed as current (mA), required to induce the presence of tonic hind limb extensor convulsions, is assessed in the MEST.
Naïve mice were acclimatised to the procedure room in their home cages for up to 7 days, with food and water available ad libitum.
All animals were weighed at the beginning of the study and randomly assigned to treatment groups based on a mean distribution of body weight across groups.
The first animal within a treatment group was given a shock at the expected or estimated CC50 current. For subsequent animals, the current was lowered or raised depending on the convulsions outcome from the preceding animal in log scale intervals.
Data generated from each treatment group were used to calculate the CC50±SEM values for the treatment group.
Vehicle: (5% ethanol, 10% solutol in 85% Saline) was prepared as follows: 1 mL of ethanol, 2 mL of solutol were warmed to 60° C., in 17 mL of saline (1:2:17).
The test compounds used were 2, 3, 5, 8, 10, 15, 16, 17, 18, 19, 41, 45, 46, 53, 56 and 58 Test compounds were administered at 5-50 mg/kg (i.p.) in a 1:2:17 ethanol:solutol:saline formulation.
Test compound effects were also calculated as percentage change in CC50 from the vehicle control group.
Significant difference between drug-treated animals and controls were assessed according to Litchfield and Wilcoxon (1949).

[1] = 5 mg/kg i.p., test 15 min post dose
[2] = 50 mg/kg i.p., test 30 min post dose

| SMILES | CC50 +/− SEM [1] | CC50 +/− SEM [2] | change in vivo at 5 mg/kg [%] | change in vivo at 50 mg/kg [%] |
| --- | --- | --- | --- | --- |
| C=C(C)[C@@H]1C[C@H](O)C(C)=C[C@H]1c1c(O)cc(/C=C/C)cc1O [Compound 7, (1′R,2′R,4′S)-5′-Methyl-4-((E)-prop-1-en-1-yl)-2′-(prop-1-en-2-yl)-1′,2′,3′,4′-tetrahydro-[1,1′-biphenyl]-2,4′,6-triol] | 29.0 ± 1.5 mA | 75.0 ± 3.4 mA | -2 | 153 |
| C=C(C)[C@@H]1C[C@H](O)C(C)=C[C@H]1c1c(O)cc(-c2ccnc(C(F)(F)F)c2)cc1O [Compound 58, (1′R,2′R,4′S)-5′-Methyl-2′-(prop-1-en-2-yl)-4-(2-(trifluoromethyl)pyridin-4-yl)-1′,2′,3′,4′-tetrahydro-[1,1′-biphenyl]-2,4′,6-triol] |  | 88.5 ± 1.3 mA |  | 234 |
| C=C(C)[C@@H]1C[C@H](O)C(C)=C[C@H]1c1c(O)cc(CCOC)cc1O [Compound 5, (1′R,2′R,4′S)-4-(2-Methoxyethyl)-5′-methyl-2′-(prop-1-en-2-yl)-1″,2′,3′,4′-tetrahydro-[1,1′-biphenyl]-2,4′,6-triol] | 23.5 +/− 0.3 mA | 50.5 +/− 0.7 mA | 0 | 115 |
| C=C(C)[C@@H]1C[C@H](O)C(C)=C[C@H]1c1c(O)cc(-c2ccccc2OC)cc1O [Compound 29, (1R,2R,4S)-2″-Methoxy-5-methyl-2-(prop-1-en-2-yl)-1,2,3,4-tetrahydro-[1,1′:4′,1″-terphenyl]-2″,4,6′-triol] | 35.0 ± 2.6 mA | 70.5 ± 1.3 mA | 32 | 166 |
| C=C(C)[C@@H]1C[C@H](O)C(C)=C[C@H]1c1c(O)cc(-c2cnn(C)c2)cc1O [Compound 10, (1′R,2′R,4′S)-5′-Methyl-4-(1-methyl-1H-pyrazol-4-yl)-2′-(prop-1-en-2-yl)-1′,2″,3′,4′-tetrahydro-[1,1′-biphenyl]-2,4′,6-triol] | 28.3 +/− 1.1 mA | 31.0 +/− 0.2 mA | 21 | 32 |
| C=C(C)[C@@H]1C[C@H](O)C(C)=C[C@H]1c1c(O)cc(-c2cccc(OC)c2)c(Cl)c1O [Compound 49, (1R,2R,4S)-3′-Chloro-3″-methoxy-5-methyl-2-(prop-1-en-2-yl)-1,2,3,4-tetrahydro-[1,1′:4′,1″-terphenyl]-2′,4,6′-triol] |  | 97.5 ± 1.3 mA |  | 244 |
| C=C(C)[C@@H]1C[C@H](O)C(C)=C[C@H]1c1c(O)cc(-c2ccc3c(c2)OCO3)cc1O [Compound 41, (1′R,2′R,4′S)-4-(Benzo[d][1,3]dioxol-5-yl)-5′-methyl-2′-(prop-1-en-2-yl)-1′,2′,3′,4′-tetrahydro-[1,1′-biphenyl]-2,4′,6-triol] | 50.5 ± 0.7 mA | >131.0 mA | 91 | > 394 |
| C=C(C)[C@@H]1C[C@H](O)C(C)=C[C@H]1c1c(O)cc(CCC)c(Cl)c1O [Compound 46, (1′R,2′R,4′S)-3-chloro-5′-methyl-2′-(prop-1-en-2-yl)-4-propyl-1′,2′,3′,4′-tetrahydro-[1,1′-biphenyl]-2,4′,6-triol] |  | 84.0 ± 3.4 mA |  | 217 |
| C=C(C)[C@@H]1C[C@H](O)C(C)=C[C@H]1c1c(O)cc(C2CC2)cc1O [Compound 8, (1′R,2′R,4′S)-4-Cyclopropyl-5′-methyl-2′-(prop-1-en-2-yl)-1′,2′,3′,4′-tetrahydro-[1,1′-biphenyl]-2,4″,6-triol] | 24.5 ± 0.9 mA | 58.2 ± 2.0 mA | 9 | 159 |
| C=C(C)[C@@H]1C[C@H](O)C(C)=C[C@H]1c1c(O)cc(-c2ccc(F)cc2)cc1O [Compound 18, (1R,2R,4S)-4″-fluoro-5-methyl-2-(prop-1-en-2-yl)-1,2,3,4-tetrahydro-[1,1′:4′,1″-terphenyl]-2′,4,6′-triol] | 31.0 ± 4.5 mA | 61.5 ± 1.3 mA | 38 | 178 |
| C=C(C)[C@@H]1C[C@H](O)C(C)=C[C@H]1c1c(O)cc(C2=CCCC2)cc1O [Compound 9, (1′R,2′R,4′S)-4-(Cyclopent-1-en-1-yl)-5′-methyl-2′-(prop-1-en-2-yl)-1′,2′,3′,4′-tetrahydro-[1,1′-biphenyl]-2,4′,6-triol] |  | >131.0 mA |  | > 344 |
| C=C(C)[C@@H]1C[C@H](O)C(C)=C[C@H]1c1c(O)cc(-c2ccc(OC)cc2)cc1O [Compound 33, (1R,2R,4S)-4″-Methoxy-5-methyl-2-(prop-1-en-2-yl)-1,2,3,4-tetrahydro-[1,1′:4′,1″-terphenyl]-2′,4,6′-triol] | 38.8 ± 1.4 mA | 79.5 ± 0.9 mA | 47 | 200 |
| C=C(C)[C@@H]1C[C@H](O)C(C)=C[C@H]1c1c(O)cc(CC)cc1O [Compound 3, (1″R,2′R,4′S)-4-Ethyl-5′-methyl-2″-(prop-1-en-2-yl)-1′,2″,3″,4′-tetrahydro-[1,1″-biphenyl]-2,4′,6-triol] | 44.2 +/− 1.4 mA | 59.2 +/− 1.4 mA | 77 | 137 |
| C=C(C)[C@@H]1C[C@H](O)C(C)=C[C@H]1c1c(O)cc(-c2cccc(OC)c2)cc1O [Compound 15, (1R,2R,4S)-3″-Methoxy-5-methyl-2-(prop-1-en-2-yl)-1,2,3,4-tetrahydro-[1,1′:4′,1″-terphenyl]-2′,4,6′-triol] |  | >114 mA |  | > 407 |
| C=C(C)[C@@H]1C[C@H](O)C(C)=C[C@H]1c1c(O)cc(-c2ccc(OC(F)F)nc2)cc1O [Compound 19, (1′R,2′R,4′S)-4-(6-(Difluoromethoxy)pyridin-3-yl)-5′-methyl-2′-(prop-1-en-2-yl)-1′,2″,3′,4′-tetrahydro-[1,1′-biphenyl]-2,4′,6-triol] | 38.0 ± 1.9 mA | 97.5 ± 1.3 mA | 43 | 268 |
| C=C(C)[C@@H]1C[C@H](O)C(C)=C[C@H]1c1c(O)cc(-c2ccc(OC)nc2)cc1O [Compound 17, (1′R,2′R,4′S)-4-(6-Methoxypyridin-3-yl)-5′-methyl-2′-(prop-1-en-2-yl)-1′,2′,3′,4′-tetrahydro-[1,1′-biphenyl]-2,4′,6-triol] | 39.0 +/− 0.2 mA | >114 mA | 66 | > 385 |
| C=C(C)[C@@H]1C[C@H](O)C(C)=C[C@H]1c1c(O)cc(-c2cccc3c2OCO3)cc1O [Compound 42, (1′R,2′R,4′S)-4-(Benzo[d][1,3]dioxol-4-yl)-5′-methyl-2′-(prop-1-en-2-yl)-1′,2′,3′,4′-tetrahydro-[1,1′-biphenyl]-2,4′,6-triol] |  | >131.0 mA |  | 457 |
| C=C(C)[C@@H]1C[C@H](O)C(C)=C[C@H]1c1c(O)cc(-c2cccc(OC(F)F)c2)cc1O [Compound 31, (1R,2R,4S)-3″-(Difluoromethoxy)-5-methyl-2-(prop-1-en-2-yl)-1,2,3,4-tetrahydro-[1,1′:4′,1″-terphenyl]-2′,4,6′-triol] | 33.0 ± 1.5 mA | 79.5 ± 1.3 mA | 25 | 200 |
